Consider 1 compound from patent publication US20240142382A1, “METHODS AND COMPOSITIONS FOR CALIBRATED LABEL-FREE SURFACE-ENHANCED RAMAN SPECTROSCOPY” (Virginia Tech Intellectual Properties, Inc., priority 2021, published 2024).

pIC50: −log10 of the molar value.

One experiment deals with MDA-MB-231 cells. Kind of experiment: label-free SERS mapping with PLS-DA of living cells treated with PTX dosages. The experiment is classed as cell-based, human. As to conditions: 1.5 nM PTX, MDA-MB-231, PLS-DA after ERS calibration.
The test system of the next experiment is HCC-1806. To be noted: HCC-1806 triple-negative breast cancer cells; read-out: half-maximal inhibition concentration (IC50); cited from earlier work.
A further experiment concerns HCC-1806 cells. Kind of experiment: label-free SERS mapping with PLS-DA of living cells treated with PTX dosages. The experiment is classed as cell-based, human. To be noted: 1.5 nM, 5 nM and 15 nM PTX, HCC-1806, after ERS calibration.

On to `CC(=O)O[C@H]1C(=O)[C@@]2(C)[C@H]([C@H](OC(=O)c3ccccc3)[C@]3(O)C[C@H](OC(=O)[C@H](O)[C@@H](NC(=O)c4ccccc4)c4ccccc4)C(C)=C1C3(C)C)[C@]1(OC(C)=O)CO[C@@H]1C[C@@H]2O` [PTX, paclitaxel], for which, in the experiment on MDA-MB-231 cells, the “changes of SERS-measured molecular profiles versus control group (0 nM)” value was “not enough to elicit significant changes”. Besides, the pIC50 in the experiment on HCC-1806 was 8.82. In addition, in the experiment with HCC-1806 cells, the “separation of PLS-DA scatters of control group (0 nM) from PTX treated groups” value is on record as “completely separate”.
